The term IC50 denotes the midpoint of a concentration-inhibition curve. Usually EC50 stands for the concentration that produces a half-maximal response.

Our source for the IC50 and EC50 values is patent publication US11566007B2, “Ras inhibitors” (Revolution Medicines, Inc., priority 2019, dated 2023).

Experiment [1] addresses K-Ras G13C (Homo sapiens (Human), UniProt P01116+P62937, G13C). The experiment can be described thus: Ras-Raf (BRAF RBD) disruption / FRET / MOA assay, KRAS G13C. To be noted: KRAS G13C; Ras-Raf disruption/FRET/MOA assay; read-out: IC50* KRAS G13C FRET data. Type of experiment: biochemical. Summed up:
(§1)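 Ras:RAF disruption was scored as a fall in TR-FRET ratio relative to DMSO. Compound ranged in 3-fold steps over 10 points from 30 μM final; incubation ran 3 h at 25° C, detection antibodies a further 1.5 h. Reported as IC50.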

Experiment [2] concerns the target NRAS G12C (Homo sapiens (Human), UniProt P01111+P62937, G12C). The experiment can be described thus: Ras-Raf (BRAF RBD) disruption / FRET / MOA assay, NRAS G12C. In kind it is biochemical. The settings on record: read-out: IC50* NRAS G12C FRET data. In a few lines: as §1
For experiment [3], the target named is KRAS G12V (Homo sapiens (Human), UniProt P01116+P62937, G12V). The experiment can be described thus: Ras-Raf (BRAF RBD) disruption / FRET / MOA assay, KRAS G12V. Type of experiment: biochemical. The settings on record: read-out: IC50* KRAS G12V FRET data. In a few lines: as §1
The test system of experiment [4] is NCI-H358 cells (K-Ras G12C). Nature of the experiment: Potency assay: pERK in NCI-H358 cells. To be noted: Homo sapiens, NCI-H358; H358 KRAS G12C; read-out: pERK EC50. In kind it is cell-based, human. Summed up: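 Compounds are dosed as ten 3-fold dilutions from a 10 mM DMSO stock, in duplicate, and left on cells for 4 h at 37 °C, 5% CO2. Phospho-ERK1/2 is then quantified by AlphaLISA SureFire Ultra or In-Cell Western, and IC50 is derived from a 4-parameter sigmoid against log concentration.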

The target of experiment [5] is NRAS WT (Homo sapiens (Human), UniProt P01111+P62937). Nature of the experiment: Ras-Raf (BRAF RBD) disruption / FRET / MOA assay, NRAS WT. In kind it is biochemical. The settings on record: read-out: IC50* NRAS WT FRET data. Summed up:
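TR-FRET disruption of nucleotide-loaded Ras binding to BRAF RBD via compound-driven ternary complex with cyclophilin A. Compound as 10-point 3-fold series from 30 μM final, 3 h at 25° C, then anti-His Eu-W1024 (10 nM) and anti-GST allophycocyanin (50 nM) for 1.5 h. IC50 from decreased FRET ratio versus DMSO.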

Sequence of NRAS WT (P01111 whole entry): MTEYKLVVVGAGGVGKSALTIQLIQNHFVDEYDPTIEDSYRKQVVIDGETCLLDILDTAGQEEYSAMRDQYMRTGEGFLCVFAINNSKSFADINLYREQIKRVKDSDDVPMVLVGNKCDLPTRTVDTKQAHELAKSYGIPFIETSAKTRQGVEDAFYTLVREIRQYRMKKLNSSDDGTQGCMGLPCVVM
Sequence of NRAS WT (P62937 whole entry): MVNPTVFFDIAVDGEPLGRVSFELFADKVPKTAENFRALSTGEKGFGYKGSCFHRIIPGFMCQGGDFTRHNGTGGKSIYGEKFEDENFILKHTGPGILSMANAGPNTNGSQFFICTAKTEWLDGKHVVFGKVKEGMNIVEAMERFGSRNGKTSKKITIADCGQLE
Sequence of K-Ras G13C (P01116-2 other isoform, or with tags, fused parts or gaps G13C): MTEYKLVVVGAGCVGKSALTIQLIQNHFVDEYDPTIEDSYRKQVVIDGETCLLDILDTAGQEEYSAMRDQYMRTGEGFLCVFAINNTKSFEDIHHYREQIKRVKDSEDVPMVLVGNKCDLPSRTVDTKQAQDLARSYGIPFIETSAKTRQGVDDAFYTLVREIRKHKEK
Sequence of K-Ras G13C (P62937 whole entry): as the sequence (P62937 whole entry) above
Sequence of KRAS G12V (P01116-2 other isoform, or with tags, fused parts or gaps G12V): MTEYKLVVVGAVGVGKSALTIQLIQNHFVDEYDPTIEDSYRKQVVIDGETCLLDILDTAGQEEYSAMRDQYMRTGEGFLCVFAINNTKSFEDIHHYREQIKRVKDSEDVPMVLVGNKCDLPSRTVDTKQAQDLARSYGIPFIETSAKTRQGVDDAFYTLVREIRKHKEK
Sequence of KRAS G12V (P62937 whole entry): as the sequence (P62937 whole entry) above
Sequence of NRAS G12C (P01111 whole entry G12C): as the sequence (P01111 whole entry) above, with G12C counted along it
Sequence of NRAS G12C (P62937 whole entry): as the sequence (P62937 whole entry) above

Take `C=CC(=O)N1CC2(C1)OCCCN2C(=O)N(C)[C@H](C(=O)N[C@H]1Cc2nc(cs2)-c2ccc3c(c2)c(c(-c2cccnc2[C@H](C)OC)n3CC)CC(C)(C)COC(=O)[C@@H]2CCCN(N2)C1=O)C(C)C` (atropisomer, axis not shown) [Example A735, 2-acryloyl-N-((2S)-1-(((6^3S,4S,Z)-1^1-ethyl-1^2-(2-((S)-1-methoxyethyl)pyridin-3-yl)-10,10-dimethyl-5,7-dioxo-6^1,6^2,6^3,6^4,6^5,6^6-hexahydro-1^1H-8-oxa-2(4,2)-thiazola-1(5,3)-indola-6(1,3)-pyridazinacycloundecaphane-4-yl)amino)-3-methyl-1-oxobutan-2-yl)-N-methyl-5-oxa-2,9-diazaspiro[3.5]nonane-9-carboxamide]: the IC50 in experiment [1] is 1000 to 10000 nM; in experiment [2], < 10 nM; in experiment [3] it was > 10000 nM; in experiment [5], 1000 to 10000 nM. Further, the EC50 in experiment [4] is < 5000 nM.
`CCn1c(-c2cccnc2[C@H](C)OC)c2c3cc(ccc31)-c1csc(n1)C[C@H](NC(=O)CCOC1CN(C(=O)C#CC(C)(C)N(C)C)C1)C(=O)N1CCC[C@H](N1)C(=O)OCC(C)(C)C2` (atropisomer, axis not shown) [Example A427, 3-((1-(4-(dimethylamino)-4-methylpent-2-ynoyl)azetidin-3-yl)oxy)-N-((6^3S,4S,Z)-1^1-ethyl-1^2-(2-((S)-1-methoxyethyl)pyridin-3-yl)-10,10-dimethyl-5,7-dioxo-6^1,6^2,6^3,6^4,6^5,6^6-hexahydro-1^1H-8-oxa-2(4,2)-thiazola-1(5,3)-indola-6(1,3)-pyridazinacycloundecaphane-4-yl)propanamide]: the IC50 is 1000 to 10000 nM in experiment [1], < 10 nM in experiment [2], 1000 to 10000 nM in experiment [3] and 1000 to 10000 nM in experiment [5]. For the same compound, the EC50 in experiment [4] is < 5000 nM.
Turning to `C=CC(=O)N1CC(OC[C@H](C(=O)N[C@H]2Cc3cccc(c3)-c3ccc4c(c3)c(c(-c3cccnc3[C@H](C)OC)n4CC(F)(F)F)CC(C)(C)COC(=O)[C@@H]3CCCN(N3)C2=O)C(C)C)C1` (atropisomer, axis not shown) [Example A344], the IC50 lay within 100 to 1000 nM in experiment [1], 10 to 100 nM in experiment [2], 1000 to 10000 nM in experiment [3] and 1000 to 10000 nM in experiment [5]. Also, the EC50 in experiment [4] is < 5000 nM.
`C=CC(=O)Nc1cnc(OC[C@H](C(=O)N[C@H]2Cc3cccc(c3)-c3ccc4c(c3)c(c(-c3cccnc3[C@H](C)OC)n4CC)CC(C)(C)COC(=O)[C@@H]3CCCN(N3)C2=O)C(C)C)n1C` (atropisomer, axis not shown) [Example A600]: the IC50 was 10 to 100 nM in experiment [1], < 10 nM in experiment [2], 1000 to 10000 nM in experiment [3] and 100 to 1000 nM in experiment [5]. For the same compound, the EC50 in experiment [4] was < 5000 nM.
In the case of `C=CC(=O)N1CC[C@H](C(=O)N(C)[C@H](C(=O)N[C@H]2Cc3nc(cs3)-c3ccc4c(c3)c(c(-c3cc5c(nc3[C@H](C)OC)CCN(C)C5)n4CC)CC(C)(C)COC(=O)[C@@H]3CCCN(N3)C2=O)C(C)C)C1` (atropisomer, axis not shown) [Example A472], the IC50 in experiment [1] fell in the range of 1000 to 10000 nM; in experiment [2], 100 to 1000 nM; in experiment [3], 1000 to 10000 nM; in experiment [5] it was 1000 to 10000 nM. In addition, the EC50 in experiment [4] is < 5000 nM.
Turning to `C=CC(=O)N1CC[C@H](C(=O)N(C)[C@H](C(=O)N[C@H]2Cc3cccc(c3)-c3ccc4c(c3)c(c(-c3cccnc3[C@H](C)OC)n4CC)CC(C)(C)COC(=O)[C@@H]3CCCN(N3)C2=O)C(C)(C)F)C1` (atropisomer, axis not shown) [Example A693], the IC50 in experiment [1] is 1000 to 10000 nM; in experiment [2] it was 100 to 1000 nM; in experiment [3] it was 1000 to 10000 nM; in experiment [5], 1000 to 10000 nM. In addition, the EC50 in experiment [4] is < 5000 nM.
For `C=C(C)C(=O)N1CC(N(C)C(=O)N(C)[C@H](C(=O)N[C@H]2Cc3nc(cs3)-c3ccc4c(c3)c(c(-c3cccnc3[C@H](C)OC)n4CC)CC(C)(C)COC(=O)[C@@H]3CCCN(N3)C2=O)C(C)C)C1` (atropisomer, axis not shown) [Example A360], the IC50 in experiment [1], in experiment [2], in experiment [3] and in experiment [5] was 100 to 1000 nM each time. Further, the EC50 in experiment [4] is < 5000 nM.
`CO[C@@H](C)c1ncccc1-c1c2c3cc(ccc3n1CC(F)(F)F)N1CCO[C@@H](C[C@H](NC(=O)[C@H](C(C)C)N3CC[C@@]4(CCN(C(=O)C#CC(C)(C)N(C)C)C4)C3=O)C(=O)N3CCC[C@H](N3)C(=O)OCC(C)(C)C2)C1` (atropisomer, axis not shown) [Example A628]: the IC50 in experiment [1] was 1000 to 10000 nM; in experiment [2], < 10 nM; in experiment [3], 1000 to 10000 nM; in experiment [5], > 10000 nM. Besides, the EC50 in experiment [4] was < 5000 nM.
On to `C=CC(=O)N1CC[C@H](C(=O)N(C)[C@H](C(=O)N[C@H]2Cc3cccc(c3)-c3ccc4c(c3)c(c(-c3cccnc3[C@H](C)OC)n4CC(F)F)CC(C)(C)COC(=O)[C@@H]3CCCN(N3)C2=O)C(C)C)C1` (atropisomer, axis not shown) [Example A335], for which the IC50 in experiment [1] was in the range of 1000 to 10000 nM; in experiment [2], 100 to 1000 nM; in experiment [3] it was 1000 to 10000 nM; in experiment [5], 1000 to 10000 nM. Besides, the EC50 in experiment [4] was < 5000 nM.
For `C=CC(=O)N1CC[C@]2(CCN(C(=O)N(C)[C@H](C(=O)N[C@H]3Cc4nc(cs4)-c4ccc5c(c4)c(c(-c4cccnc4[C@H](C)OC)n5CC)CC(C)(C)COC(=O)[C@@H]4CCCN(N4)C3=O)C(C)C)C2)C1` (atropisomer, axis not shown) [Example A719], the IC50 in experiment [1] was in the range of 10 to 100 nM; in experiment [2], 10 to 100 nM; in experiment [3], 100 to 1000 nM; in experiment [5], 10 to 100 nM. In addition, the EC50 in experiment [4] was < 5000 nM.
In the case of `C=CC(=O)N1CC[C@H](C(=O)N(C)[C@@H](CC(F)(F)F)C(=O)N[C@H]2Cc3cccc(c3)-c3ccc4c(c3)c(c(-c3cccnc3[C@H](C)OC)n4CC)CC(C)(C)COC(=O)[C@@H]3CCCN(N3)C2=O)C1` (atropisomer, axis not shown) [Example A639], the IC50 in experiment [1] lay within 1000 to 10000 nM; in experiment [2], 100 to 1000 nM; in experiment [3], 1000 to 10000 nM; in experiment [5], 1000 to 10000 nM. The EC50 in experiment [4] is < 5000 nM.
On to `C=CC(=O)N1CCN(C(=O)N(C)[C@H](C(=O)N[C@H]2Cc3nc(cs3)-c3ccc4c(c3)c(c(-c3cccnc3[C@H](C)OC)n4CC)CC(C)(C)COC(=O)[C@@H]3CCCN(N3)C2=O)C(C)C)[C@H]2CC[C@H]21` (atropisomer, axis not shown) [Example A734], for which the IC50 in experiment [1], in experiment [2], in experiment [3] and in experiment [5] was 10 to 100 nM in each case. The EC50 in experiment [4] was < 5000 nM.
For the compound `CCn1c(-c2cccnc2[C@H](C)OC)c2c3cc(ccc31)-c1csc(n1)C[C@H](NC(=O)CCO[C@@H]1CCN(C(=O)C#CC(C)(C)N3CCC3)C1)C(=O)N1CCC[C@H](N1)C(=O)OCC(C)(C)C2` (atropisomer, axis not shown) [Example A366], the IC50 in experiment [1] was in the range of 100 to 1000 nM; in experiment [2], 100 to 1000 nM; in experiment [3], 100 to 1000 nM; in experiment [5] it was 1000 to 10000 nM. The EC50 in experiment [4] is < 5000 nM.
Take `CCn1c(-c2cccnc2[C@H](C)OC)c2c3cc(ccc31)-c1csc(n1)C[C@H](NC(=O)[C@@H](F)COC1CN(C(=O)C#CC(C)(C)N(C)C)C1)C(=O)N1CCC[C@H](N1)C(=O)OCC(C)(C)C2` (atropisomer, axis not shown) [Example A626]: the IC50 in experiment [1] was 1000 to 10000 nM; in experiment [2], < 10 nM; in experiment [3] it was 1000 to 10000 nM; in experiment [5], 1000 to 10000 nM. Also, in experiment [4], the EC50 is < 5000 nM.
For `CCn1c(-c2cccnc2[C@H](C)OC)c2c3cc(ccc31)-c1cccc(c1)C[C@H](NC(=O)[C@H](C(C)C)N1CC[C@@]3(CCN(C(=O)C#C[C@@H]4COCCN4C4COC4)C3)C1=O)C(=O)N1CCC[C@H](N1)C(=O)OCC(C)(C)C2` [Example A566], the IC50 was in the range of 100 to 1000 nM in experiment [1], 10 to 100 nM in experiment [2], 1000 to 10000 nM in experiment [3] and 1000 to 10000 nM in experiment [5]. Further, in experiment [4], the EC50 is < 5000 nM.
Take `C=CC(=O)N1C[C@@H](C)[C@H](N(C)C(=O)N(C)[C@H](C(=O)N[C@H]2Cc3nc(cs3)-c3ccc4c(c3)c(c(-c3cccnc3[C@H](C)OC)n4CC)CC(C)(C)COC(=O)[C@@H]3CCCN(N3)C2=O)C(C)C)C1` (atropisomer, axis not shown) [Example A588]: the IC50 in experiment [1] is 1000 to 10000 nM; in experiment [2], 100 to 1000 nM; in experiment [3], 1000 to 10000 nM; in experiment [5] it was 1000 to 10000 nM. In addition, the EC50 in experiment [4] was < 5000 nM.
As for `C=CC(=O)N1CC(OC[C@H](C(=O)N[C@H]2Cc3cc(F)cc(c3)-c3ccc4c(c3)c(c(-c3cccnc3[C@H](C)OC)n4CC(F)(F)F)CC(C)(C)COC(=O)[C@@H]3CCCN(N3)C2=O)C(C)C)C1` (atropisomer, axis not shown) [Example A725], the IC50 in experiment [1] lay within 100 to 1000 nM; in experiment [2], 100 to 1000 nM; in experiment [3] it was 1000 to 10000 nM; in experiment [5] it was 1000 to 10000 nM. Further, in experiment [4], the EC50 is < 5000 nM.
